Results on four compounds are retold here after article PMC10004634 (PLOS ONE, 2023).

Where two headings read alike, the source gives them in different places.

Assay in all cases: biochemical
Parameters in all cases: KINOMEscan scanMAX competition binding, DNA-tagged kinases, qPCR read-out, percent control at 300 nM

Experiment [1] has as its target MST1R (Homo sapiens, UniProt Q04912).
For experiment [2], the target named is PRKCH (Homo sapiens, UniProt P24723).
The target of experiment [3] is CAMK4 (Homo sapiens, UniProt Q16566).
CAMK4, sequence (Q16566 whole entry, looked up): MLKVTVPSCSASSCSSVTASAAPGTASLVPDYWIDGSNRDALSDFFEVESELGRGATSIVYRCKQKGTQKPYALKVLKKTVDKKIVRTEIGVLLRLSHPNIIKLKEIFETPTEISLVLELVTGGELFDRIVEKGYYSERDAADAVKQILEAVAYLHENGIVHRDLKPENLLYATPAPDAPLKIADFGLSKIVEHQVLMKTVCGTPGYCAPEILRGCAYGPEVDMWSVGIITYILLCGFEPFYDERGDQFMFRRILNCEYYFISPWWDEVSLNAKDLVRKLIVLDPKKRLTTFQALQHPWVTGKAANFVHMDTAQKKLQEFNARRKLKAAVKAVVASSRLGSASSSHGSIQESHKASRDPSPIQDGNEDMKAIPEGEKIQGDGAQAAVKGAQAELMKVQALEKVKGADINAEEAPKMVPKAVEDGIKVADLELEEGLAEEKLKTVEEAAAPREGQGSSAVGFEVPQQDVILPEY
Experiment [4] has as its target CDK2 (Homo sapiens, UniProt P24941).
For experiment [5], the target named is T1, TRKB (Homo sapiens, UniProt Q16620).
T1 construct: gene NTRK2
T1 sequence (Q16620 whole entry): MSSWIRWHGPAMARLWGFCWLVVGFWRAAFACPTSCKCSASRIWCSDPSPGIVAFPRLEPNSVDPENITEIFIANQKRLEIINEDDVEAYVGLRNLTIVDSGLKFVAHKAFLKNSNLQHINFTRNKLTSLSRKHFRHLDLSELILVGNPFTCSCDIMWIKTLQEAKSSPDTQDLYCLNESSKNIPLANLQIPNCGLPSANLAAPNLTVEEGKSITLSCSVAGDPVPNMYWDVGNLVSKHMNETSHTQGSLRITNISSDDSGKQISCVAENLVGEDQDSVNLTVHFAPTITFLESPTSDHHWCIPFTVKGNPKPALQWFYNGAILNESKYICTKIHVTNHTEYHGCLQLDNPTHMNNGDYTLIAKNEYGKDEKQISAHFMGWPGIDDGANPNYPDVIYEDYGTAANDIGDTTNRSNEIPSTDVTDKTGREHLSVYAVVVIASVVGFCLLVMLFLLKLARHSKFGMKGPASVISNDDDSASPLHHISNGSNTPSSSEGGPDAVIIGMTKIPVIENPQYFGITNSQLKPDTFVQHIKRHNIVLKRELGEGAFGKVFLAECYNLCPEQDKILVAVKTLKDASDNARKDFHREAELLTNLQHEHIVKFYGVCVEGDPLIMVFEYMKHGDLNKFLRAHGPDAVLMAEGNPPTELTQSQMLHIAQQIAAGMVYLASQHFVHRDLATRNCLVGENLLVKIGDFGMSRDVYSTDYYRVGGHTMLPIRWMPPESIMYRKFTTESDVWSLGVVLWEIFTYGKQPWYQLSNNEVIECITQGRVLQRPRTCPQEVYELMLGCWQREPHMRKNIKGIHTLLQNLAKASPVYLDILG

Experiment [6] has as its target WEE1 (Homo sapiens, UniProt P30291).
In experiment [7] the target is T2, FLT3 (Homo sapiens, UniProt P36888).
T2 sequence (P36888 1-993): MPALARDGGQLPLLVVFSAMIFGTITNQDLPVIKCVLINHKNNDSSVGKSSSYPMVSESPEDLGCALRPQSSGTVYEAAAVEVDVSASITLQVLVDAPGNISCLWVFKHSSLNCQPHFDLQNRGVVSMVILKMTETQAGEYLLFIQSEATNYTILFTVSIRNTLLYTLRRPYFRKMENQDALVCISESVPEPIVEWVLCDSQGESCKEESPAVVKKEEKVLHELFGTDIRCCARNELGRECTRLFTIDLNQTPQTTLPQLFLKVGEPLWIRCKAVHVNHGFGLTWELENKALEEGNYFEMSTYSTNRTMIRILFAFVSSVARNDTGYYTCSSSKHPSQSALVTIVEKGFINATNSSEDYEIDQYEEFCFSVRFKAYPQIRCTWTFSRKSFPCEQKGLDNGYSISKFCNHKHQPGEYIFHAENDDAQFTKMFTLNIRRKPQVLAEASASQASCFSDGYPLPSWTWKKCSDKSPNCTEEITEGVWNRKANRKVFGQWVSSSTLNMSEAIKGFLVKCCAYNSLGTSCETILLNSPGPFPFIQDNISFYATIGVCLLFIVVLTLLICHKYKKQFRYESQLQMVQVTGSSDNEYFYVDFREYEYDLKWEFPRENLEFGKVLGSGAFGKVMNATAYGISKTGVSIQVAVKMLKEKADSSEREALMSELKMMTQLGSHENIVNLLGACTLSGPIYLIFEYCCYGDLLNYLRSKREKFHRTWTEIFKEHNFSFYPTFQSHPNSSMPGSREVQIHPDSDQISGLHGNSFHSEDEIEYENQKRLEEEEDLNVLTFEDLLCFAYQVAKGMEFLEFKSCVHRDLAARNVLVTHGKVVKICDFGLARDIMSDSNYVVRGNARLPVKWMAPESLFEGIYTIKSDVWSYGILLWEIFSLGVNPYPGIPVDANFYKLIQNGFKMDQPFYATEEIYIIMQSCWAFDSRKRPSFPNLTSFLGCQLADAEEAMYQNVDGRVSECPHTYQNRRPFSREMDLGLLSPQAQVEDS

Experiment [8] has as its target T3, JAK1(JH1domain-catalytic) (Homo sapiens, UniProt P23458).
T3 construct: JH1domain-catalytic

Experiment [9] has as its target FGFR3 (Homo sapiens, UniProt P22607).
The target in experiment [10] is T4, TTK (Homo sapiens, UniProt P33981).
T4 sequence (P33981 1-857): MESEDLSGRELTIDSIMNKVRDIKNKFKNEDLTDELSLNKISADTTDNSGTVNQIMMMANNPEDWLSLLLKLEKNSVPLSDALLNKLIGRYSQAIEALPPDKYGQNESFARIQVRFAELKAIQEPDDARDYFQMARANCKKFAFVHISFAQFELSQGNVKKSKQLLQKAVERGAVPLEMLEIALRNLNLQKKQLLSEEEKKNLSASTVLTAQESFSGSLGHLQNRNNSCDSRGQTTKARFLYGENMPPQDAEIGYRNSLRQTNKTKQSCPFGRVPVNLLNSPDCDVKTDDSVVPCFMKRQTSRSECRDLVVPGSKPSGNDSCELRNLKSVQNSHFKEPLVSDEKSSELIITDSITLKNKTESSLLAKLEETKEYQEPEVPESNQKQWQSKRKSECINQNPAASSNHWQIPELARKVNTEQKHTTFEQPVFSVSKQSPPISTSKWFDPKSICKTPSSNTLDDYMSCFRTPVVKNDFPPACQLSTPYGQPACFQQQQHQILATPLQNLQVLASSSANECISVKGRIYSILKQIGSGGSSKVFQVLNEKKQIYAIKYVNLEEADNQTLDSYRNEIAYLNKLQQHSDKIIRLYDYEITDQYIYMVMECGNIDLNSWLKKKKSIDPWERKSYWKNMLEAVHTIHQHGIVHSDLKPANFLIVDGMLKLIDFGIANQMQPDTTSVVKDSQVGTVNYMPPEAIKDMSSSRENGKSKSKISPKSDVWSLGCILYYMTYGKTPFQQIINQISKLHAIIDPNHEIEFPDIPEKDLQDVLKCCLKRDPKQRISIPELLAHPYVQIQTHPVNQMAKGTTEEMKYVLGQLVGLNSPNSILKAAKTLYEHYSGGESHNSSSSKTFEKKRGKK

Setting [11] is: read-out: Percent control / Tirabrutinib.
Where [12] appears, read: read-out: Percent control / Acalabrutinib.
The mark [13] stands for this setting: read-out: Percent control / Ibrutinib.
[14] abbreviates: read-out: Percent control / Zanubrutinib.

FGFR3, sequence (P22607 whole entry): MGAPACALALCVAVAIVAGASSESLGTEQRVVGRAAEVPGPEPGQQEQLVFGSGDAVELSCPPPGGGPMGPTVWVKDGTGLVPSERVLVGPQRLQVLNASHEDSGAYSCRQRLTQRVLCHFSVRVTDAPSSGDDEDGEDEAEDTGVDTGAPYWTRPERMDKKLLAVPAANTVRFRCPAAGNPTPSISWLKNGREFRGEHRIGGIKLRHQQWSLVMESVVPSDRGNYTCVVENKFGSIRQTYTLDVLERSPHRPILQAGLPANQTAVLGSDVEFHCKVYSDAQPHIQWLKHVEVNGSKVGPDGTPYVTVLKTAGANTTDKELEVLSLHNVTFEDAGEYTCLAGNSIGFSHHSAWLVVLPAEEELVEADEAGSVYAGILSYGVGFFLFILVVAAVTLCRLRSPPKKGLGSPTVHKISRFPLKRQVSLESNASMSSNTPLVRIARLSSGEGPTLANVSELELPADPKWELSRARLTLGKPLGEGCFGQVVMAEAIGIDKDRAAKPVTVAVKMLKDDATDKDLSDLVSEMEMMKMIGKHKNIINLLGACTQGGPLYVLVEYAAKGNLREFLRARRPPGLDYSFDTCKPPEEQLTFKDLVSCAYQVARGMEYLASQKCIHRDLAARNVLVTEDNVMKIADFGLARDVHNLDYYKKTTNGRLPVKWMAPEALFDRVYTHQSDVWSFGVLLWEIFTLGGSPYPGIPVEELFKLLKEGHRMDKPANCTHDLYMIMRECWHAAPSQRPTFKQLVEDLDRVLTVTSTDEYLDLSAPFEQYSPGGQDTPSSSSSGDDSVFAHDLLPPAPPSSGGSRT
WEE1, sequence (P30291 whole entry): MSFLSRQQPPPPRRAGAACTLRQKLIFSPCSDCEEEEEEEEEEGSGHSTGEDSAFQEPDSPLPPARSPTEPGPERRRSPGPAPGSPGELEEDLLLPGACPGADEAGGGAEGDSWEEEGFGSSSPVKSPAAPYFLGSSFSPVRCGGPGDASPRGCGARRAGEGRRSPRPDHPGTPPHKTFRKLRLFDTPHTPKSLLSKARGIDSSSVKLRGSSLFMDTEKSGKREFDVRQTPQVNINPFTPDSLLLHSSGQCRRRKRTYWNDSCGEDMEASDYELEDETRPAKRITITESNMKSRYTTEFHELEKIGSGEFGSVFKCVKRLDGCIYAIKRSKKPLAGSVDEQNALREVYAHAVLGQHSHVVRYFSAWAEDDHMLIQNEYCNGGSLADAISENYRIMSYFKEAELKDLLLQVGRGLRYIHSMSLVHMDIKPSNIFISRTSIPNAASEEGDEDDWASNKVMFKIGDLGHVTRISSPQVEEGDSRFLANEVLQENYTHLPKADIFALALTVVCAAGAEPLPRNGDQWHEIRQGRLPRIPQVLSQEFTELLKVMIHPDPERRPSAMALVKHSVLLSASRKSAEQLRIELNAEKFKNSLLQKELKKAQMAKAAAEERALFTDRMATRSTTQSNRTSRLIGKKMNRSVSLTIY
PRKCH, sequence (P24723 whole entry): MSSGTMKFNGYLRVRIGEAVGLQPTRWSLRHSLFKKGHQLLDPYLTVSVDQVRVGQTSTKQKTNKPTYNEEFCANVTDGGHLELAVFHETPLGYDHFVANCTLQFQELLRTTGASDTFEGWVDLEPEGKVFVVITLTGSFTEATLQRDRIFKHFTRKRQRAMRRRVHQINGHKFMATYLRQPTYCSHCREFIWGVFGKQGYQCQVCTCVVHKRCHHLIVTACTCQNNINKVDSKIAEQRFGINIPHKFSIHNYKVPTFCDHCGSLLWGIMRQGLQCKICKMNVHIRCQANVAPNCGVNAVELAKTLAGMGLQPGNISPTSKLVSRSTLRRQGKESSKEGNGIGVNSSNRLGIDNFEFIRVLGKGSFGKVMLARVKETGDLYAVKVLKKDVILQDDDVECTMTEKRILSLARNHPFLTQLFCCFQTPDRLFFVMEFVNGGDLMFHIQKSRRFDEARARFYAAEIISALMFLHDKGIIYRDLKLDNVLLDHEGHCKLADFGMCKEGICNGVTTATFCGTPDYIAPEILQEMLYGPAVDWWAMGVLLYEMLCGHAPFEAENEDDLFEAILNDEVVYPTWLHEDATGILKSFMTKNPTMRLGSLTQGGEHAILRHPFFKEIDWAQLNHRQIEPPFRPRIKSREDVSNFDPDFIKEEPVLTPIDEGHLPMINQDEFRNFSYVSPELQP
MST1R, sequence (Q04912 whole entry): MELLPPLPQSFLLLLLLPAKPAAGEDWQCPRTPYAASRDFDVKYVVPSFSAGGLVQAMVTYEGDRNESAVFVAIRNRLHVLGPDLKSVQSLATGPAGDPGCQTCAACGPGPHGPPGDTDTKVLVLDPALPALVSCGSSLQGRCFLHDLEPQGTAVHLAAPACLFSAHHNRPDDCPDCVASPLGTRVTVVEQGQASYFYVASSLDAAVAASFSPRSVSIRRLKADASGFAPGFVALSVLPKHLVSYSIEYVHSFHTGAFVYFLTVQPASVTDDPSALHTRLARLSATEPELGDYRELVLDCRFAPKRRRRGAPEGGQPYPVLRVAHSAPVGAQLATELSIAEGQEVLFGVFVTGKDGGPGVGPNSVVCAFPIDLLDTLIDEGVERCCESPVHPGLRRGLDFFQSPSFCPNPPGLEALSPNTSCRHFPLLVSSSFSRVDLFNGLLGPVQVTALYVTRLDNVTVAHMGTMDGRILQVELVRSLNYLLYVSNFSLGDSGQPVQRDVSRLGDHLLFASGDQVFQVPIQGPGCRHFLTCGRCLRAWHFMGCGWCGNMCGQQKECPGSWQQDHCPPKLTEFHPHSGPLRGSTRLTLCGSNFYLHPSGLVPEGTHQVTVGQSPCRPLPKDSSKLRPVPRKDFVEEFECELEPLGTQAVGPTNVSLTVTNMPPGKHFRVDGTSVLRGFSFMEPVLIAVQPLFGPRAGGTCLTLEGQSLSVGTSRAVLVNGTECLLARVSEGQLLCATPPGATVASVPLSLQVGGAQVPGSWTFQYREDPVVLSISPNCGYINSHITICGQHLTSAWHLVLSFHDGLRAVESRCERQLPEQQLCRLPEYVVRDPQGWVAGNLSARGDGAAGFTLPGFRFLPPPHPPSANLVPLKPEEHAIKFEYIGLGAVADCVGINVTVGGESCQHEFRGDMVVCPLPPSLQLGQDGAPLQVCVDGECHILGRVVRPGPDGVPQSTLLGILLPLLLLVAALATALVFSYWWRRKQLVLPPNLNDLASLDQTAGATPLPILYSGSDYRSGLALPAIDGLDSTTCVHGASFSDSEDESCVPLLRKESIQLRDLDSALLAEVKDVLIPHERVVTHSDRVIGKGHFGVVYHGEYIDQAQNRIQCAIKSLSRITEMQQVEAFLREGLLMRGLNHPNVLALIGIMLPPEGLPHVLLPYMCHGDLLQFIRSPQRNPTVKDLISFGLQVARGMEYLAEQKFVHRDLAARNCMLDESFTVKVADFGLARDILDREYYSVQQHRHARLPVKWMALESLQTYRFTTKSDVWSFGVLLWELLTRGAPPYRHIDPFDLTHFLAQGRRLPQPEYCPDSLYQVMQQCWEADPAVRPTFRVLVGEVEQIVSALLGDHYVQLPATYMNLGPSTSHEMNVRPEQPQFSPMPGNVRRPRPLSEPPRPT

As to `CC#CC(=O)N1CC[C@@H](n2c(=O)n(-c3ccc(Oc4ccccc4)cc3)c3c(N)ncnc32)C1` [Tirabrutinib], the remaining binding at 0.3 µM in [1] (setting [11]) was 98%; in experiment [2] (setting [11]), 91%; in [3] (setting [11]) it was 82%; in experiment [4] (setting [11]) it was 82%; in [5] (setting [11]), 79%; in experiment [6] (setting [11]), 93%. In addition, the remaining binding at 0.3 µM in [7] (setting [11]) worked out at 98%; in experiment [8] (setting [11]), 88%; in experiment [9] (setting [11]), 92%.

In the case of `CC#CC(=O)N1CCC[C@H]1c1nc(-c2ccc(C(=O)Nc3ccccn3)cc2)c2c(N)nccn12` [Acalabrutinib], the remaining binding at 0.3 µM in experiment [1] (setting [12]) was determined as 91%; in experiment [2] (setting [12]) it was 94%; in experiment [4] (setting [12]), 86%; in [6] (setting [12]) it was 80%; in [7] (setting [12]), 86%; in experiment [8] (setting [12]), 64%. The remaining binding at 0.3 µM is 64% in experiment [10] (setting [12]) and 95% in experiment [9] (setting [12]).

As to `C=CC(=O)N1CCC[C@@H](n2nc(-c3ccc(Oc4ccccc4)cc3)c3c(N)ncnc32)C1` [Ibrutinib], the remaining binding at 0.3 µM in experiment [1] (setting [13]) was determined as 90%; in [2] (setting [13]), 90%; in experiment [3] (setting [13]), 96%; in experiment [5] (setting [13]), 76%; in experiment [6] (setting [13]), 89%; in experiment [7] (setting [13]), 47%. The remaining binding at 0.3 µM in experiment [10] (setting [13]) amounted to 93%.

In the case of `C=CC(=O)N1CCC([C@@H]2CCNc3c(C(N)=O)c(-c4ccc(Oc5ccccc5)cc4)nn32)CC1` [Zanubrutinib], the remaining binding at 0.3 µM in experiment [1] (setting [14]) was 98%; in experiment [2] (setting [14]), 97%; in [3] (setting [14]), 91%; in [4] (setting [14]) it was 99%; in experiment [5] (setting [14]), 94%; in experiment [6] (setting [14]), 100%. Moreover, the remaining binding at 0.3 µM is 90% in [7] (setting [14]), 87% in [8] (setting [14]), 94% in [10] (setting [14]) and 93% in experiment [9] (setting [14]).
